Assay results published in paper PMC6199744, “Development of Chemical Proteomics for the Folateome and Analysis of the Kinetoplastid Folateome” (ACS Infectious Diseases, 2018).
Like-named read-outs stand apart in the source and are kept apart here.

Key:
Type in all cases: binding
[1] = target: T1, HeLa cell extract proteins (Homo sapiens, UniProt Q08945); settings: protein SSRP1; HeLa
T1 construct: endogenous in cells; host or cells: HeLa cell extract

[2] = target: T2, HeLa cell extract proteins (Homo sapiens, UniProt P50748); settings: HeLa; protein KNTC1
T2 construct: endogenous in cells; host or cells: HeLa cell extract

[3] = target: T3, HeLa cell extract proteins (Homo sapiens, UniProt P42330)
T3 construct: endogenous in cells; host or cells: HeLa cell extract
T3 sequence (P42330 1-323): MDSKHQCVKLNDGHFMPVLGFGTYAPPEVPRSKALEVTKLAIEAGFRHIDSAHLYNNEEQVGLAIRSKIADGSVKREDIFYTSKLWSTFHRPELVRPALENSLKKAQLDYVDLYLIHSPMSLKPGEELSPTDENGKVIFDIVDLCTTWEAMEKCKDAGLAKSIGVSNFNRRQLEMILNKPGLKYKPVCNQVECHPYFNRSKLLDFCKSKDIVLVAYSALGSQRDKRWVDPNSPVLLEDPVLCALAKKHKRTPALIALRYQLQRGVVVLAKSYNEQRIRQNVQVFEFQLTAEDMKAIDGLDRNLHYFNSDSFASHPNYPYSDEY

[4] = target: T4, HeLa cell extract proteins (Homo sapiens, UniProt Q6L8Q7)
T4 construct: endogenous in cells; host or cells: HeLa cell extract
T4 sequence (Q6L8Q7 43-609): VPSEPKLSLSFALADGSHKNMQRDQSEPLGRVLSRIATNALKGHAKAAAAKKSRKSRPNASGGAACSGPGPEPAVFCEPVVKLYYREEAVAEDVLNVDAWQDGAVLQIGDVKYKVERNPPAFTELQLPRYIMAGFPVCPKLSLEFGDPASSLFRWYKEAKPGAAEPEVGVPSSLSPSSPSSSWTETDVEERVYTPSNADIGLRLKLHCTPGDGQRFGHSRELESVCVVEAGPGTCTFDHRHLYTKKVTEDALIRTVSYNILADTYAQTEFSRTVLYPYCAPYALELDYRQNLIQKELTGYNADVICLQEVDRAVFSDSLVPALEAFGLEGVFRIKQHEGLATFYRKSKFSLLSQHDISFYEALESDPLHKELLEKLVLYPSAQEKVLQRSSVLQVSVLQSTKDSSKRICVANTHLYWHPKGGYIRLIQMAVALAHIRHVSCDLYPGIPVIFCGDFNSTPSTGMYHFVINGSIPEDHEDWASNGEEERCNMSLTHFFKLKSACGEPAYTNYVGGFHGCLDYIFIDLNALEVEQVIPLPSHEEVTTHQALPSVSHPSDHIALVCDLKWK

[5] = target: T5, HeLa cell extract proteins (Homo sapiens, UniProt Q93099)
T5 construct: endogenous in cells; host or cells: HeLa cell extract
T5 sequence (Q93099 1-445): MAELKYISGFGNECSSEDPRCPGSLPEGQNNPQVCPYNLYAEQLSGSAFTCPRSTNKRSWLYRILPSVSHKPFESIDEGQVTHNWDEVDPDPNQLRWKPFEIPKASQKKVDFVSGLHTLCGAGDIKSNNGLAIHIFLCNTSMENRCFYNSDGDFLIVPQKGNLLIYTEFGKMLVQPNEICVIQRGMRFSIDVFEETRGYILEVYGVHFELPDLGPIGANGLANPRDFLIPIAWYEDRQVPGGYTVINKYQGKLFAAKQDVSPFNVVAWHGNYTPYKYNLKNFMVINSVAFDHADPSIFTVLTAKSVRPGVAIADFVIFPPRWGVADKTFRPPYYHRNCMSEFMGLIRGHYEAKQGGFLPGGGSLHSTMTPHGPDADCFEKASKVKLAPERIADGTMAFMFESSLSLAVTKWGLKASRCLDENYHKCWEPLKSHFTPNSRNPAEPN

[6] = target: T6, HeLa cell extract proteins (Homo sapiens, UniProt Q9P2E9)
T6 construct: endogenous in cells; host or cells: HeLa cell extract
T6 sequence (Q9P2E9 1-1410): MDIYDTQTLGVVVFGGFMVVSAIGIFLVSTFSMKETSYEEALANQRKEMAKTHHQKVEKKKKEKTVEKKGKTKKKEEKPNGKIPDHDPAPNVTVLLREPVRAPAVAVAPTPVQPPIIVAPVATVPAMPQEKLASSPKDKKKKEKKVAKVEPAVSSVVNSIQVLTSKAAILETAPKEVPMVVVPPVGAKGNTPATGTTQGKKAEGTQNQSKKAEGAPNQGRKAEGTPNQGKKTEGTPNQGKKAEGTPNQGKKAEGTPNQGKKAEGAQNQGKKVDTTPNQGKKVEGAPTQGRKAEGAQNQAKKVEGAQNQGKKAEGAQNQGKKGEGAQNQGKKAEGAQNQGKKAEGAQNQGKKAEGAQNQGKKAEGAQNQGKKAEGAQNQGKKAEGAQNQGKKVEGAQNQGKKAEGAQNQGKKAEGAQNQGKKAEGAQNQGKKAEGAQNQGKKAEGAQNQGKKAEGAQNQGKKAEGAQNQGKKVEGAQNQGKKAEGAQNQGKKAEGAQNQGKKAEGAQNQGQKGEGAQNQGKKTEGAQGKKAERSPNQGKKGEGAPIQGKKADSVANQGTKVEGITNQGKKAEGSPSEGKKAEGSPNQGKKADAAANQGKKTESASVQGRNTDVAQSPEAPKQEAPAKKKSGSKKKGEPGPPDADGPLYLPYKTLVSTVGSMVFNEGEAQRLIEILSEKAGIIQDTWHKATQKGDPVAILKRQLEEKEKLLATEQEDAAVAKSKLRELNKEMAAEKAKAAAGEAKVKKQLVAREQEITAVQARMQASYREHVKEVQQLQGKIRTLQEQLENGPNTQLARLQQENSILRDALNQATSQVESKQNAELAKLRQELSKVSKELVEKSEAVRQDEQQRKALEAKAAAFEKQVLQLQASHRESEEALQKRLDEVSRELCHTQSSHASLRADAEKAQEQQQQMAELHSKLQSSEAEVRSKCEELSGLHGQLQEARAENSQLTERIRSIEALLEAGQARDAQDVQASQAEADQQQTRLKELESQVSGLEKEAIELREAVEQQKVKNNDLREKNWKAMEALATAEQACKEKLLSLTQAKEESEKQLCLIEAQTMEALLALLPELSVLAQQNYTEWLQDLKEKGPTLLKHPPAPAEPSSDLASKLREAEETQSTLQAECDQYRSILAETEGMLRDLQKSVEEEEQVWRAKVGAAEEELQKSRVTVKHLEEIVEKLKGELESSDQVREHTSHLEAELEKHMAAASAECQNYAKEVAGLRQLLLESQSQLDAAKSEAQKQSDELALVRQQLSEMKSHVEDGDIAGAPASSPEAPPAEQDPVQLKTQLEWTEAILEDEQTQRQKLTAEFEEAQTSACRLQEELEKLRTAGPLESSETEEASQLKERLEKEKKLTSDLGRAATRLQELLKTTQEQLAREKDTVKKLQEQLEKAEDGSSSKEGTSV

T1 sequence (Q08945 whole entry): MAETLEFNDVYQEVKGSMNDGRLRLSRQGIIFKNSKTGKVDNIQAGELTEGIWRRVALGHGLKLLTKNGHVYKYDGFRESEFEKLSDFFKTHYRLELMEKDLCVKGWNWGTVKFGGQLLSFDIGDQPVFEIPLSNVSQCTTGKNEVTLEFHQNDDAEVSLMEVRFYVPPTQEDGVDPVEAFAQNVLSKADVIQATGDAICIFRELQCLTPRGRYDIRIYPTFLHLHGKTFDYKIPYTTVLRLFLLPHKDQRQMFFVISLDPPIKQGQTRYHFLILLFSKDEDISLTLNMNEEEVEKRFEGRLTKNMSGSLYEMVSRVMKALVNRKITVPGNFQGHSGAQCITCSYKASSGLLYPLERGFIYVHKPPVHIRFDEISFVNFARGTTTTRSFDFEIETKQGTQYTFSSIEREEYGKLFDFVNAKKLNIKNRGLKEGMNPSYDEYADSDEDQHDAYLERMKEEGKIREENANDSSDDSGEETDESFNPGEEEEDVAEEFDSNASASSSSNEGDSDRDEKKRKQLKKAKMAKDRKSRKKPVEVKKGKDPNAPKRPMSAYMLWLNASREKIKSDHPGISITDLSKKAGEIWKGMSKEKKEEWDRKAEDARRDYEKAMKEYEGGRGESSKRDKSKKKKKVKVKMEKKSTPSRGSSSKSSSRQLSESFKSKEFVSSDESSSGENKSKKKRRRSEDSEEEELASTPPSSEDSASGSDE
T2 sequence (P50748 whole entry): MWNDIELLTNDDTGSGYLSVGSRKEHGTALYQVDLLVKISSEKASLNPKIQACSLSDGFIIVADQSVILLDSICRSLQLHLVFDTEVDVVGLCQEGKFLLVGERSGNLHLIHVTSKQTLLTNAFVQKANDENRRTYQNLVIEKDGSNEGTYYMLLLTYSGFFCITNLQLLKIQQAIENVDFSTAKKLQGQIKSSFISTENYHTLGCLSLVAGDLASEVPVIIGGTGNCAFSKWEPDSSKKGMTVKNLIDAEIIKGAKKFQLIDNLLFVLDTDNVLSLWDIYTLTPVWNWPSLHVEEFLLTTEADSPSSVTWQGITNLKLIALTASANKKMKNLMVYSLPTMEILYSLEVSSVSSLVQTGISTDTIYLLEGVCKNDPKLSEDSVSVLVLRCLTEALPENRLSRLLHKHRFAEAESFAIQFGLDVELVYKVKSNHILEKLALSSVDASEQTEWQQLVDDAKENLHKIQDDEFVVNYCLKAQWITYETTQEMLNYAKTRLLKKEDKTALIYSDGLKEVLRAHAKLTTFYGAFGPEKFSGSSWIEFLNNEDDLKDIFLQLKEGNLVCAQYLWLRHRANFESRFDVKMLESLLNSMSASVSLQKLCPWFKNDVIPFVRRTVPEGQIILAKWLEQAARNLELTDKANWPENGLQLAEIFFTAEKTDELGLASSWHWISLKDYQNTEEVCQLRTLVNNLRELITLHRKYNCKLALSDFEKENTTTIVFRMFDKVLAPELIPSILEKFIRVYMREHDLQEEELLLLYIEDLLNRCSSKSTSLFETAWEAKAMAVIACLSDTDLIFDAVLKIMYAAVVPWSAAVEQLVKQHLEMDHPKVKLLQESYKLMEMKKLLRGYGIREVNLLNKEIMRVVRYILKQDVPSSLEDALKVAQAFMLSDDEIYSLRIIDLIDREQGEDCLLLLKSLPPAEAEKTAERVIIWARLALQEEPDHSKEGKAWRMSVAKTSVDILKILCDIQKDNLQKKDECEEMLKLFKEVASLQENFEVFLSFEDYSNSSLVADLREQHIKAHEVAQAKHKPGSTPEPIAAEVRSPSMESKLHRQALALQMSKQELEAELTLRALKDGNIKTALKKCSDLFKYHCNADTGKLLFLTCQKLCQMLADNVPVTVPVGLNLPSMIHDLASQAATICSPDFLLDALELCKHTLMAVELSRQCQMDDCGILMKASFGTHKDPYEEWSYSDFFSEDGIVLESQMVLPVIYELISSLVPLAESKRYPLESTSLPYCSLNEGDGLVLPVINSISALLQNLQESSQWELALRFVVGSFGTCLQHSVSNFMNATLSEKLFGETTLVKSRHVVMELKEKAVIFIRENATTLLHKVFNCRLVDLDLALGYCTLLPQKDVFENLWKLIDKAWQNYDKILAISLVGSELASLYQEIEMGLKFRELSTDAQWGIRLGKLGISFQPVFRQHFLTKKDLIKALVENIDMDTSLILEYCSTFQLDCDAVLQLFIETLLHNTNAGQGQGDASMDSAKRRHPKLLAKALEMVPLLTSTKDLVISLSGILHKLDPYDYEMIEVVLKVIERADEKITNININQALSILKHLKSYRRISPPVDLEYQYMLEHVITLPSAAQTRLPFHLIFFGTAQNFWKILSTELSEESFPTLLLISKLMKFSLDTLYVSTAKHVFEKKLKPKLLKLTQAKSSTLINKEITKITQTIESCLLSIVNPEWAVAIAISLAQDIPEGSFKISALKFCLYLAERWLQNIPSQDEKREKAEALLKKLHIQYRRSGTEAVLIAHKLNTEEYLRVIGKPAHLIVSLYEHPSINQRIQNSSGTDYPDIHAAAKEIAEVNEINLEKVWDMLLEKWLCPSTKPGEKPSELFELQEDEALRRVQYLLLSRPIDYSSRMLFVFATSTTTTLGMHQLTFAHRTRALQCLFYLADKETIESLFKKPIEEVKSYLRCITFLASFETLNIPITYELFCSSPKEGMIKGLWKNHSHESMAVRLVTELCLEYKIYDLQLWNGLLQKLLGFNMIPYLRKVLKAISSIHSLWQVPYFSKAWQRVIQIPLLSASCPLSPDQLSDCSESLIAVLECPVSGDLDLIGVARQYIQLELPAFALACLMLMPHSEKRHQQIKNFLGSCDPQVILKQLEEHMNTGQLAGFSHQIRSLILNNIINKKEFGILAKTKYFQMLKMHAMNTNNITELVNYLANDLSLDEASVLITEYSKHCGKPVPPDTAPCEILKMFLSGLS

Compound	fold changes relative to vehicle control [1]	fold changes relative to vehicle control [2]	fold changes relative to vehicle control ([3]; HeLa, protein AKR1C3)	fold changes relative to vehicle control ([4]; HeLa, protein PDE12)	fold changes relative to vehicle control ([5]; HeLa, protein HGD)	fold changes relative to vehicle control ([6]; HeLa, protein RRBP1)	also measured
Nc1nc2cccc(-c3ccccc3)c2n1Cc1ccc(Cl)c(Cl)c1 [compound 3]	0.95	1.17					
CCCCCCOc1ccc(Cc2cnc(N)nc2N)cc1 [compound 1]	0.93	1.15					
NCCCNc1ccc(C(=O)NC(CCC(=O)O)C(=O)O)cc1 (stereo not shown) [compound 7]			0.99	1.34	0.8	1	
CCCCCCOc1cccc(Cc2cnc(N)nc2N)c1 [compound 2]	1.44	1.13					
NCCOCCOCC(=O)Nc1nc2ncc(CNc3ccc(C(=O)NC(CCC(=O)O)C(=O)O)cc3)nc2c(=O)[nH]1 (stereo not shown) [compound 6]			1.3	1.1	1.01	1.35	
Nc1nc2[nH]cc(CCc3ccc(C(=O)N[C@@H](CCC(=O)O)C(=O)O)cc3)c2c(=O)[nH]1 [PTX, pemetrexed]							fold changes relative to vehicle control [3]: 1.13; fold changes relative to vehicle control [4]: 1.04; fold changes relative to vehicle control [5]: 1.01; fold changes relative to vehicle control [6]: 1.03
Nc1nc2c(c(=O)[nH]1)N(C=O)C(CNc1ccc(C(=O)N[C@@H](CCC(=O)O)C(=O)O)cc1)CN2 (stereo partly shown) [LEU, leucovorin]			0.98	0.93	0.87	1.08	
